Measurements reported in ChEMBL document CHEMBL5537158, “Polymyxins with Potent Antibacterial Activity against Colistin-Resistant Pathogens: Fine-Tuning Hydrophobicity with Unnatural Amino Acids” (J Med Chem, 2024).
In brackets after ≈: the same amount, converted by molar mass. Activity calls are given as the source filed them. The rule behind the calls is not given here. Positions of bridges follow the written chain, without caps; N, C: chain ends. Non-standard residues stand in square brackets, D forms with d. Residues, ends and D or L forms follow the SMILES beside them. *: point of attachment. dPhe(3,4,5-F3) = N[C@H](Cc1cc(F)c(F)c(F)c1)C(=O)O; dPhe(4-Cl) = N[C@H](Cc1ccc(Cl)cc1)C(=O)O; hPhe = N[C@@H](CCc1ccccc1)C(=O)O; Octanoyl = CCCCCCCC(=O)*; Dab = NCC[C@H](N)C(=O)O

Assays:
Acinetobacter baumannii [1] = experiment: Antimicrobial activity against colistin resistant Acinetobacter baumannii clinical isolate 3 assessed as bacterial growth inhibition incubated for 20 hrs by broth microdilution method; format: functional
Klebsiella pneumoniae [2] = experiment: Antimicrobial activity against colistin resistant Klebsiella pneumoniae clinical isolate 4 assessed as bacterial growth inhibition incubated for 20 hrs by broth microdilution method; format: functional
Pseudomonas aeruginosa [3] = experiment: Antimicrobial activity against colistin resistant Pseudomonas aeruginosa 7197/19 assessed as bacterial growth inhibition incubated for 20 hrs by broth microdilution method; format: functional
Klebsiella pneumoniae [4] = experiment: Antimicrobial activity against colistin resistant Klebsiella pneumoniae clinical isolate 3 assessed as bacterial growth inhibition incubated for 20 hrs by broth microdilution method; format: functional
Pseudomonas aeruginosa [5] = experiment: Antimicrobial activity against Pseudomonas aeruginosa PAO1 assessed as bacterial growth inhibition incubated for 20 hrs by broth microdilution method; format: functional
Escherichia coli [6] = experiment: Antibacterial activity against […] Escherichia coli clinical isolate 2 assessed as bacterial growth inhibition incubated for 20 hrs by broth microdilution method; format: functional
Escherichia coli [7] = experiment: Antibacterial activity against […] Escherichia coli clinical isolate 1 assessed as bacterial growth inhibition incubated for 20 hrs by broth microdilution method; format: functional
Escherichia coli [8] = experiment: Antibacterial activity against Escherichia coli ATCC 25922 assessed as bacterial growth inhibition incubated for 20 hrs by broth microdilution method; format: functional
Pseudomonas aeruginosa [9] = experiment: Antimicrobial activity against Pseudomonas aeruginosa ATCC 27853 assessed as bacterial growth inhibition incubated for 20 hrs by broth microdilution method; format: functional
Klebsiella pneumoniae [10] = experiment: Antimicrobial activity against colistin resistant Klebsiella pneumoniae clinical isolate 2 assessed as bacterial growth inhibition incubated for 20 hrs by broth microdilution method; format: functional
Klebsiella pneumoniae [11] = experiment: Antimicrobial activity against colistin resistant Klebsiella pneumoniae clinical isolate 1 assessed as bacterial growth inhibition incubated for 20 hrs by broth microdilution method; format: functional
Escherichia coli [12] = experiment: Antimicrobial activity against […] Escherichia coli harboring mcr-1 assessed as bacterial growth inhibition incubated for 20 hrs by broth microdilution method; format: functional
Escherichia coli [13] = experiment: Antibacterial activity against […] Escherichia coli clinical isolate 3 assessed as bacterial growth inhibition incubated for 20 hrs by broth microdilution method; format: functional
Acinetobacter baumannii [14] = experiment: Antimicrobial activity against colistin resistant Acinetobacter baumannii clinical isolate 4 assessed as bacterial growth inhibition incubated for 20 hrs by broth microdilution method; format: functional
Pseudomonas aeruginosa [15] = experiment: Antimicrobial activity against colistin resistant Pseudomonas aeruginosa clinical isolate 1 assessed as bacterial growth inhibition incubated for 20 hrs by broth microdilution method; format: functional
Klebsiella pneumoniae [16] = experiment: Antimicrobial activity against Klebsiella pneumoniae ATCC 13883 assessed as bacterial growth inhibition incubated for 20 hrs by broth microdilution method; format: functional
Klebsiella pneumoniae [17] = experiment: Antimicrobial activity against colistin resistant Klebsiella pneumoniae ATCC 13883 assessed as bacterial growth inhibition incubated for 20 hrs by broth microdilution method; format: functional
Acinetobacter baumannii [18] = experiment: Antimicrobial activity against colistin resistant Acinetobacter baumannii ATCC 3658/17 assessed as bacterial growth inhibition incubated for 20 hrs by broth microdilution method; format: functional
Cell membrane = experiment: Induction of membrane destabilization in Escherichia coli MG1655 assessed as SYTOX uptake at 2 times MIC measured every 5 mins for 120 mins by microplate reader assay; format: cell membranes
Acinetobacter baumannii [19] = experiment: Antimicrobial activity against Acinetobacter baumannii ATCC 19606 assessed as bacterial growth inhibition incubated for 20 hrs by broth microdilution method; format: functional
Escherichia coli [20] = experiment: Antibacterial activity against […] Escherichia coli ATCC 25922 assessed as bacterial growth inhibition incubated for 20 hrs by broth microdilution method; format: functional
Acinetobacter baumannii [21] = experiment: Antimicrobial activity against colistin resistant Acinetobacter baumannii clinical isolate 2 assessed as bacterial growth inhibition incubated for 20 hrs by broth microdilution method; format: functional
Acinetobacter baumannii [22] = experiment: Antimicrobial activity against colistin resistant Acinetobacter baumannii ATCC 19606 assessed as bacterial growth inhibition incubated for 20 hrs by broth microdilution method; format: functional
Klebsiella pneumoniae [23] = experiment: Antimicrobial activity against colistin resistant Klebsiella pneumoniae clinical isolate 5 assessed as bacterial growth inhibition incubated for 20 hrs by broth microdilution method; format: functional
Klebsiella pneumoniae [24] = experiment: Antimicrobial activity against colistin resistant Klebsiella pneumoniae clinical isolate 6 assessed as bacterial growth inhibition incubated for 20 hrs by broth microdilution method; format: functional
Acinetobacter baumannii [25] = experiment: Antimicrobial activity against colistin resistant Acinetobacter baumannii clinical isolate 1 assessed as bacterial growth inhibition incubated for 20 hrs by broth microdilution method; format: functional

CCCCCCCC(=O)N[C@@H](CCN)C(=O)N[C@H](C(=O)N[C@@H](CCN)C(=O)N[C@H]1CCNC(=O)[C@H]([C@@H](C)O)NC(=O)[C@H](CCN)NC(=O)[C@H](CCN)NC(=O)[C@H](CCc2ccccc2)NC(=O)[C@@H](CC(C)C)NC(=O)[C@H](CCN)NC1=O)[C@@H](C)O (Octanoyl-[Dab]T[Dab][Dab][Dab][dL][hPhe][Dab][Dab]T; lactam 4-C)
MIC (Acinetobacter baumannii [1]): 1 µg/mL (≈ 0.831 µM)
MIC (Klebsiella pneumoniae [2]): 4 µg/mL (≈ 3.32 µM)
MIC (Pseudomonas aeruginosa [3]): 1 µg/mL (≈ 0.831 µM)
MIC (Klebsiella pneumoniae [4]): 4 µg/mL (≈ 3.32 µM)
MIC (Pseudomonas aeruginosa [5]): 0.25 µg/mL (≈ 0.208 µM)
MIC (Escherichia coli [6]): 1 µg/mL (≈ 0.831 µM)
MIC (Escherichia coli [7]): 1 µg/mL (≈ 0.831 µM)
MIC (Escherichia coli [8]): 0.125 µg/mL (≈ 0.104 µM)
MIC (Pseudomonas aeruginosa [9]): 0.25 µg/mL (≈ 0.208 µM)
MIC (Klebsiella pneumoniae [10]): 4 µg/mL (≈ 3.32 µM)
MIC (Klebsiella pneumoniae [11]): 4 µg/mL (≈ 3.32 µM)
MIC (Escherichia coli [12]): 1 µg/mL (≈ 0.831 µM)
MIC (Escherichia coli [13]): 0.5 µg/mL (≈ 0.415 µM)

CCCCCCCC(=O)N[C@@H](CCN)C(=O)N[C@H](C(=O)N[C@@H](CCN)C(=O)N[C@H]1CCNC(=O)[C@H]([C@@H](C)O)NC(=O)[C@H](CCN)NC(=O)[C@H](CCN)NC(=O)[C@H](CC(C)C)NC(=O)[C@@H](Cc2ccc(Cl)cc2)NC(=O)[C@H](CCN)NC1=O)[C@@H](C)O (Octanoyl-[Dab]T[Dab][Dab][Dab][dPhe(4-Cl)]L[Dab][Dab]T; lactam 4-C)
MIC (Pseudomonas aeruginosa [3]): 0.25 µg/mL (≈ 0.204 µM)
MIC (Klebsiella pneumoniae [4]): 16 µg/mL (≈ 13.1 µM)
MIC (Pseudomonas aeruginosa [5]): 0.25 µg/mL (≈ 0.204 µM)
MIC (Acinetobacter baumannii [14]): 16 µg/mL (≈ 13.1 µM)
MIC (Escherichia coli [7]): 2 µg/mL (≈ 1.63 µM)
MIC (Pseudomonas aeruginosa [15]): 4 µg/mL (≈ 3.27 µM)
MIC (Klebsiella pneumoniae [16]): < 0.125 µg/mL
MIC (Klebsiella pneumoniae [17]): 16 µg/mL (≈ 13.1 µM)
MIC (Acinetobacter baumannii [18]): 0.25 µg/mL (≈ 0.204 µM)
MIC (Klebsiella pneumoniae [11]): 16 µg/mL (≈ 13.1 µM)

CCCCCCCC(=O)N[C@@H](CCN)C(=O)N[C@H](C(=O)N[C@@H](CCN)C(=O)N[C@H]1CCNC(=O)[C@H]([C@@H](C)O)NC(=O)[C@H](CCN)NC(=O)[C@H](CCN)NC(=O)C(CCCc2ccccc2)NC(=O)[C@@H](Cc2ccccc2)NC(=O)[C@@H](CCN)NC1=O)[C@H](C)O (stereo partly specified)
Activity (Cell membrane): Active

CCCCCCCC(=O)N[C@@H](CCN)C(=O)N[C@H](C(=O)N[C@@H](CCN)C(=O)N[C@H]1CCNC(=O)[C@H]([C@@H](C)O)NC(=O)[C@H](CCN)NC(=O)[C@H](CCN)NC(=O)[C@H](CC(C)C)NC(=O)[C@@H](Cc2ccc(Br)cc2)NC(=O)[C@@H](CCN)NC1=O)[C@H](C)O
Activity (Cell membrane): Active

CCCCCCCC(=O)N[C@@H](CCN)C(=O)N[C@H](C(=O)N[C@@H](CCN)C(=O)N[C@H]1CCNC(=O)[C@H]([C@@H](C)O)NC(=O)[C@H](CCN)NC(=O)[C@H](CCN)NC(=O)[C@H](CC(C)C)NC(=O)[C@@H](Cc2cc(F)c(F)c(F)c2)NC(=O)[C@H](CCN)NC1=O)[C@@H](C)O (Octanoyl-[Dab]T[Dab][Dab][Dab][dPhe(3,4,5-F3)]L[Dab][Dab]T; lactam 4-C)
MIC (Pseudomonas aeruginosa [3]): 0.25 µg/mL (≈ 0.201 µM)
MIC (Pseudomonas aeruginosa [5]): < 0.125 µg/mL
MIC (Escherichia coli [8]): < 0.125 µg/mL
MIC (Acinetobacter baumannii [19]): < 0.125 µg/mL
MIC (Klebsiella pneumoniae [16]): < 0.125 µg/mL
MIC (Escherichia coli [12]): 1 µg/mL (≈ 0.804 µM)

POLYMYXIN B
MIC (Acinetobacter baumannii [1]): 8 µg/mL
MIC (Escherichia coli [20]): 0.125 µg/mL
MIC (Acinetobacter baumannii [21]): > 16 µg/mL
MIC (Klebsiella pneumoniae [2]): 16 µg/mL
MIC (Pseudomonas aeruginosa [3]): 8 µg/mL
MIC (Klebsiella pneumoniae [4]): 4 µg/mL
MIC (Pseudomonas aeruginosa [5]): 0.25 µg/mL
MIC (Escherichia coli [6]): 2 µg/mL
MIC (Acinetobacter baumannii [22]): 0.125 µg/mL
MIC (Acinetobacter baumannii [14]): 16 µg/mL
MIC (Escherichia coli [7]): 2 µg/mL
MIC (Escherichia coli [8]): 0.25 µg/mL
MIC (Klebsiella pneumoniae [23]): > 16 µg/mL
MIC (Pseudomonas aeruginosa [9]): 0.25 µg/mL
MIC (Acinetobacter baumannii [19]): 0.25 µg/mL
MIC (Pseudomonas aeruginosa [15]): 4 µg/mL
MIC (Klebsiella pneumoniae [10]): 8 µg/mL
MIC (Klebsiella pneumoniae [16]): 0.5 µg/mL
MIC (Klebsiella pneumoniae [24]): 16 µg/mL
MIC (Klebsiella pneumoniae [17]): 16 µg/mL
MIC (Acinetobacter baumannii [25]): > 16 µg/mL
MIC (Acinetobacter baumannii [18]): 8 µg/mL
MIC (Klebsiella pneumoniae [11]): > 16 µg/mL
MIC (Escherichia coli [12]): 2 µg/mL
MIC (Escherichia coli [13]): 4 µg/mL
